According to US20040166058A1, “Ethylenedicysteine (EC)-drug conjugates, compositions and methods for tissue specific disease imaging” (Board of Regents, The University of Texas System, priority 2002, published 2004):

Key:
[1] = test system: human lung cancer cells (A549 tumor cell line); test: Biodistribution in lung tumor-bearing nude mice; assay type: in vivo, athymic nude mice; settings: for Biodistribution Blood / Biodistribution Brain / Biodistribution Heart / Biodistribution Intestine / Biodistribution Kidney / Biodistribution Liver / Biodistribution Lung / Biodistribution Muscle / Biodistribution Spleen / Biodistribution Stomach / Biodistribution Thyroid / Biodistribution Tumor / Tumor/Blood / Tumor/Lung / Tumor/Muscle: intravenously
Method: Female athymic nude mice (NCr-nu/nu, NCI, Bethasda, Md.) were inoculated with human lung cancer cells (A549 tumor cell line, 3×10^6 cells/mouse, intramuscular) by one author in the mid-dorsal region. After the tumor reached 6 mm, separate biodistribution studies using ^99mTc-EC-DG and 18F-FDG were conducted. Each received ^99mTc-EC-DG or 18F-FDG intravenously (n=3/time point). The injection activity was 1-3 μCi/mouse. The injected mass of ^99mTc-EC-DG was 0.2 mg/rodent.

[2] = test system: 13762 tumor cell line mammary tumor; test: Gamma scintigraphic imaging in Fischer 344 rats with 13762 mammary tumor; assay type: in vivo; settings: 0.5, 2 and 4 hours after i.v. injection of 300 μCi
Method: Female Fischer 344 rats (250-275 g each) (Harlan, Inc., Indianapolis, Ind.) were inoculated with mammary tumor cells by one author from the 13762 tumor cell line (s.c. 10^6 cells/rat, a tumor cell line specific to Fischer rats). After 8-10 days, tumor volumes of 0.3-0.6 cm were measured. Scintigraphic images were obtained 0.5, 2 and 4 hours after i.v. injection of 300 μCi of ^99mTc-EC or ^99mTc-EC-DG (n=3/agent, total 6 rats). ROI between tumor tissue and muscle (at symmetric site) was used to determine tumor/non-tumor ratios. The smallest tumor volume that could be detected by ^99mTc-EC-DG was 3 mm.

[3] = In vitro cell culture of ^99mTc-EC-DG with or without transition chelators; assay type: cell-based; settings: kit formulation
Excerpt: It may also be important to include an antioxidant and a transition chelator in the composition to prevent oxidation of the ethylenedicysteine. For example, the antioxidant may be vitamin C (ascorbic acid). However, other antioxidants known to those of ordinary skill in the art, such as tocopherol, pyridoxine, thiamine, or rutin, may also be used. Any transition chelator known to those of ordinary skill in the art may be used in conjunction with the present invention. Examples of transition chelators include glucoheptonate, gluconate, glucarate, citrate, and tartarate.

O=C(NC1C(O)OC(CO)C(O)C1O)C1C[S][99Tc]23(=[O])[S]CC(C(=O)NC4C(O)OC(CO)C(O)C4O)[N]2CC[N]13 (stereo not drawn) [^99mTc-EC-DG]
Biodistribution Blood ([1]; 30 min): 1.607 ± 0.389 % of injected dose per gram of tissue weight | Biodistribution Brain ([1]; 30 min): 0.058 ± 0.008 % of injected dose per gram of tissue weight | Biodistribution Heart ([1]; 30 min): 0.611 ± 0.193 % of injected dose per gram of tissue weight | Biodistribution Intestine ([1]; 30 min): 0.510 ± 0.093 % of injected dose per gram of tissue weight | Biodistribution Kidney ([1]; 30 min): 6.726 ± 1.842 % of injected dose per gram of tissue weight | Biodistribution Liver ([1]; 30 min): 5.674 ± 2.089 % of injected dose per gram of tissue weight | Biodistribution Lung ([1]; 30 min): 1.048 ± 0.259 % of injected dose per gram of tissue weight | Biodistribution Muscle ([1]; 30 min): 0.264 ± 0.072 % of injected dose per gram of tissue weight | Biodistribution Spleen ([1]; 30 min): 3.240 ± 1.709 % of injected dose per gram of tissue weight | Biodistribution Stomach ([1]; 30 min): 0.540 ± 0.113 % of injected dose per gram of tissue weight | Biodistribution Thyroid ([1]; 30 min): 0.929 ± 0.212 % of injected dose per gram of tissue weight | Biodistribution Tumor ([1]; 30 min): 0.787 ± 0.163 % of injected dose per gram of tissue weight | Tumor/Blood ([1]; 30 min): 0.499 ± 0.022 | Tumor/Lung ([1]; 30 min): 0.769 ± 0.047 | Tumor/Muscle ([1]; 30 min): 3.352 ± 0.749 | Biodistribution Blood ([1]; 2 h): 0.977 ± 0.267 % of injected dose per gram of tissue weight | Biodistribution Brain ([1]; 2 h): 0.042 ± 0.006 % of injected dose per gram of tissue weight | Biodistribution Heart ([1]; 2 h): 0.336 ± 0.080 % of injected dose per gram of tissue weight | Biodistribution Intestine ([1]; 2 h): 0.417 ± 0.110 % of injected dose per gram of tissue weight | Biodistribution Kidney ([1]; 2 h): 5.687 ± 1.540 % of injected dose per gram of tissue weight | Biodistribution Liver ([1]; 2 h): 5.807 ± 1.708 % of injected dose per gram of tissue weight | Biodistribution Lung ([1]; 2 h): 0.721 ± 0.210 % of injected dose per gram of tissue weight | Biodistribution Muscle ([1]; 2 h): 0.148 ± 0.039 % of injected dose per gram of tissue weight | Biodistribution Spleen ([1]; 2 h): 4.205 ± 1.374 % of injected dose per gram of tissue weight | Biodistribution Stomach ([1]; 2 h): 0.439 ± 0.138 % of injected dose per gram of tissue weight | Biodistribution Thyroid ([1]; 2 h): 0.665 ± 0.207 % of injected dose per gram of tissue weight | Biodistribution Tumor ([1]; 2 h): 0.415 ± 0.123 % of injected dose per gram of tissue weight | Tumor/Blood ([1]; 2 h): 0.424 ± 0.022 | Tumor/Lung ([1]; 2 h): 0.587 ± 0.046 | Tumor/Muscle ([1]; 2 h): 2.754 ± 0.120 | Biodistribution Blood ([1]; 4 h): 0.787 ± 0.152 % of injected dose per gram of tissue weight | Biodistribution Brain ([1]; 4 h): 0.042 ± 0.006 % of injected dose per gram of tissue weight | Biodistribution Heart ([1]; 4 h): 0.318 ± 0.071 % of injected dose per gram of tissue weight | Biodistribution Intestine ([1]; 4 h): 0.374 ± 0.073 % of injected dose per gram of tissue weight | Biodistribution Kidney ([1]; 4 h): 4.318 ± 0.890 % of injected dose per gram of tissue weight | Biodistribution Liver ([1]; 4 h): 6.656 ± 1.786 % of injected dose per gram of tissue weight | Biodistribution Lung ([1]; 4 h): 0.606 ± 0.128 % of injected dose per gram of tissue weight | Biodistribution Muscle ([1]; 4 h): 0.147 ± 0.022 % of injected dose per gram of tissue weight | Biodistribution Spleen ([1]; 4 h): 5.933 ± 3.194 % of injected dose per gram of tissue weight | Biodistribution Stomach ([1]; 4 h): 0.541 ± 0.119 % of injected dose per gram of tissue weight | Biodistribution Thyroid ([1]; 4 h): 0.692 ± 0.119 % of injected dose per gram of tissue weight | Biodistribution Tumor ([1]; 4 h): 0.414 ± 0.161 % of injected dose per gram of tissue weight | Tumor/Blood ([1]; 4 h): 0.502 ± 0.120 | Tumor/Lung ([1]; 4 h): 0.640 ± 0.120 | Tumor/Muscle ([1]; 4 h): 2.795 ± 0.982 | tumor/muscle and tumor/brain ratios, ^99mTc-EC-DG versus 18F-FDG ([1]; as a function of time): higher tumor/muscle and tumor/brain ratios | organs visualized [2]: Heart, kidneys, liver, and bladder were visualized | stability with or without transition chelators (gluconate and glucarate) [3]: does not interfere with the stability
